O=C(O)c1cc(O)c(O)c(O)c1
solubility (mole fraction)
Conditions	293.15 K	298.15 K	303.15 K	308.15 K	313.15 K	318.15 K
in methanol	0.0639	0.0672	0.07	0.0721	0.0755	0.0768
in water	0.00101	0.00135	0.00171	0.00227	0.00289	0.0038
